Data reported in US9150840B2, “Isolated bacterial strain of Achromobacter sp. MTCC 5605 and a highly enantioselective epoxide hydrolase isolated therefrom” (COUNCIL OF SCIENTIFIC & INDUSTRIAL RESEARCH, priority 2011, dated 2015).

These compounds were tested on Achromobacter sp. MTCC 5605 (assay: Antibiotic sensitivity of the isolated strain). Settings: not given.
Type: cell-based
With `COc1cccc(OC)c1C(=O)N[C@@H]1C(=O)N2[C@@H]1SC(C)(C)[C@@H]2C(=O)O` [Methicillin] the Antibiotic sensitivity was “Resistant to Penicillin-G (10 units), Methicillin (5 mcg),”.
In the case of `C[C@@H]1[C@H](O)[C@@H](C)/C=C/C=C/C=C/C=C/C=C/C=C/C=C/[C@H](O[C@@H]2O[C@H](C)[C@@H](O)[C@H](N)[C@@H]2O)C[C@@H]2O[C@](O)(C[C@@H](O)C[C@@H](O)[C@H](O)CC[C@@H](O)C[C@@H](O)CC(=O)O[C@H]1C)C[C@H](O)[C@H]2C(=O)O` [Amphotericin B], the Antibiotic sensitivity was “Resistant to Penicillin-G (10 units), Methicillin (5 mcg),”.
With `CC1(C)S[C@@H]2[C@H](NC(=O)Cc3ccccc3)C(=O)N2[C@H]1C(=O)O` [Penicillin-G] the Antibiotic sensitivity was “Resistant to Penicillin-G (10 units), Methicillin (5 mcg),”.
For `O=C(O)c1cn(C2CC2)c2cc(N3CCNCC3)c(F)cc2c1=O` [Ciprofloxacin], the Antibiotic sensitivity was “Sensitive to Erythromycin (10 mcg), Gentamycin (10 mcg),”.
`CC[C@H]1OC(=O)[C@H](C)[C@@H](O[C@H]2C[C@@](C)(OC)[C@@H](O)[C@H](C)O2)[C@H](C)[C@@H](O[C@@H]2O[C@H](C)C[C@H](N(C)C)[C@H]2O)[C@](C)(O)C[C@@H](C)C(=O)[C@H](C)[C@@H](O)[C@]1(C)O` [Erythromycin] was tested, and the Antibiotic sensitivity was “Sensitive to Erythromycin (10 mcg), Gentamycin (10 mcg),”.
With `O=C(N[C@H](CO)[C@H](O)c1ccc([N+](=O)[O-])cc1)C(Cl)Cl` [Chloramphenicol] the Antibiotic sensitivity was “Sensitive to Erythromycin (10 mcg), Gentamycin (10 mcg),”.
With `C[C@@H]1[C@H](O)[C@@H](C)/C=C/C=C/CC/C=C/C=C/C=C/C=C/C(O[C@H]2O[C@H](C)[C@@H](O)[C@H](N)[C@@H]2O)CC2O[C@](O)(CC(O)C(O)CCC(O)CC(O)CC(O)CC(=O)O[C@H]1C)CC(O)C2C(=O)O` (stereo partly drawn) [Nystatin] the Antibiotic sensitivity was “Resistant to Penicillin-G (10 units), Methicillin (5 mcg),”.

Same assay, conditions: amount per antibiotic as printed (5-30 mcg, 10 units)
In the case of Gentamycin, the Antibiotic sensitivity was “Sensitive to Erythromycin (10 mcg), Gentamycin (10 mcg),”.

What follows are compounds tested on epoxide hydrolase from Achromobacter sp. MTCC 5605 (assay: not given). Settings: pH 8.
Type: biochemical
In the case of `CCOC(=O)OC(=O)OCC` [diethyl pyrocarbonate], the “Inhibition of epoxide hydrolase activity” value was “none of them showed any inhibition”.
`O[C@H](CS)[C@H](O)CS` (racemic) [dithiothreitol] was tested, and the “Inhibition of epoxide hydrolase activity” value was “none of them showed any inhibition”.
With `NO` [hydroxylamine] the “Inhibition of epoxide hydrolase activity” value was “none of them showed any inhibition”.
`CCCCCCCCCCCCCCCC[N+](C)(C)C.[Br-]` [cetyltrimethylammonium bromide] was tested, and the “Inhibition of epoxide hydrolase activity” value was “none of them showed any inhibition”.
`CCCCCCCCCCCCOS(=O)(=O)[O-].[Na+]` [sodium dodecyl sulphate] was tested, and the “Inhibition of epoxide hydrolase activity” value was “none of them showed any inhibition”.
With `O=C(O)CN(CCN(CC(=O)O)CC(=O)O)CC(=O)O` [ethylenediaminetetraacetic acid] the “Inhibition of epoxide hydrolase activity” value was “none of them showed any inhibition”.
`NNc1ccccc1` [phenyl hydrazine] was tested, and the “Inhibition of epoxide hydrolase activity” value was “none of them showed any inhibition”.
